The source of these data is US7928139B2 (Amgen Inc., priority 2006, dated 2011).

As usually defined, the pIC50 is the negative decadic logarithm of the IC50, by convention in mol/L. A high value points to a low IC50.

SMILES strings stand for the structures. pIC50: −log10 of the molar value.

This assay addresses HIF PHD2 (Homo sapiens, UniProt Q9GZT9). As to the kind of experiment: PHD2 inhibition assay (TR-FRET, VCB-Eu detection of hydroxylated P564-HIF1α peptide). Type of assay: biochemical. Conditions: 2 nM PHD2, 100 nM P564-HIF1α peptide, 0.25 μM 2-oxoglutarate, 100 μM FeCl2, 2 mM ascorbic acid. The protocol:
Inhibition of HIF PHD2 activity was quantified utilizing the TR-FRET technology. HIF PHD2 catalyzes a hydroxyl modification on the proline residue of the P564-HIF1α peptide substrate (Biotin-DLEMLAPYIPMDDDFQL (SEQ ID NO: 7)) resulting in recognition and binding of the europylated Von Hippel-Lindau protein (pVHL), elongin B and elongin C heterotrimeric (VCB-Eu) complex.
The PHD2 inhibition assay was executed by addition of freshly dissolved FeCl2 to 178.57 μM (100 μM final concentration) in PHD2 Reaction Buffer containing 30 mM MES, pH 6, 10 mM NaCl, 0.25% Brij-35, 0.01% BSA, and 1% DMSO. 28 μL of the iron solution and 2 μL of inhibitor compounds serially diluted in 100% DMSO (5% DMSO final) were added to black polypropylene 96-well microtiter plates. To that, 10 μL of 10 nM PHD2 (2 nM final) was added to all wells of the plate except for the 8 wells of column 12 (LO control), and allowed to incubate at room temperature on the shaker for one hour. Column 6 was the HI control containing PHD2 enzyme and 5% DMSO vehicle, but no inhibitor compound. To initiate the PHD2 enzymatic reaction, 10 μL of a solution containing 500 nM P564-HIF1α peptide (100 nM final), 10 mM ascorbic acid (2 mM final), and 1.25 μM 2-oxoglutarate (α-ketoglutarate; 0.25 μM final) in PHD2 Reaction Buffer was added to all wells of the plate and allowed to incubate on the shaker at room temperature for one hour.
The reaction was terminated by addition of 25 μL TR-FRET Buffer (50 mM TRIS-HCl, pH 9, 100 mM NaCl, 0.05% BSA, and 0.5% Tween-20) containing 150 mM succinate (product inhibitor; 50 mM final), 75 nM streptavidin-APC (25 nM final), and 7.5 nM VCB-Eu (2.5 nM final). The TR-FRET detection reagents were placed on a shaker for 1 hour to reach binding equilibrium before reading on the Discovery platform (PerkinElmer). Europium is excited at 315 nm and phosphoresces at 615 nm with a large Stoke's shift. APC, in turn, emits at 655 nm upon excitation at 615 nm. The TR-FRET signal is measured as the ratio of the APC 655 nm signal divided by the internal europium reference 615 nm emission signal.
The POC (percentage of control) was determined by comparing the signal from hydroxylated peptide substrate in the enzyme reaction containing inhibitor compound with that from PHD2 enzyme with DMSO vehicle alone (HI control), and no enzyme (LO control). POC was calculated using the formula: % control (POC)=(cpd−average LO)/(average HI−average LO)*100. Data (consisting of POC and inhibitor concentration in μM) was fitted to a 4-parameter equation (y=A+((B−A)/(1+((x/C)^D))), where A is the minimum y (POC) value, B is the maximum y (POC), C is the x (cpd concentration) at the point of inflection and D is the slope factor) using a Levenburg-Marquardt non-linear regression algorithm.

Sequence of HIF PHD2 (Q9GZT9 whole entry): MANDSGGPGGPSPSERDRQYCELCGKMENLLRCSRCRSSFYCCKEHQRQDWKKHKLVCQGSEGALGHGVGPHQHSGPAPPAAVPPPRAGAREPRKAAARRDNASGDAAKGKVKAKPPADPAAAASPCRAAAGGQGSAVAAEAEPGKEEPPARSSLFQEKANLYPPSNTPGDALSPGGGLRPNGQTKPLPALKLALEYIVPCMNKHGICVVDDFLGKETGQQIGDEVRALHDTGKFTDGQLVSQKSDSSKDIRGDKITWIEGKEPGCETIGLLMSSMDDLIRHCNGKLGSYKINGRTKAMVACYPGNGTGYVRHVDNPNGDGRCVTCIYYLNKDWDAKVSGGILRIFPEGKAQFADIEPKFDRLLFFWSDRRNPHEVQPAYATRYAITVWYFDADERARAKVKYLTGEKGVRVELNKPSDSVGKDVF

`CC1(C)C(=O)C(C(=O)NCC(=O)O)=C(O)c2ccc(Br)cc21` [Example 53, N-((7-Bromo-4-hydroxy-1,1-dimethyl-2-oxo-naphthalen-3-yl)carbonyl)glycine] gave a negative-log IC50 (pIC50) greater than 7.00.
`COc1cc2c(cc1Br)C1(CCOCC1)C(=O)C(C(=O)NCC(=O)O)=C2O` [Example 14, N-((7-Bromo-4-hydroxy-6-(methyloxy)-2-oxo-2′,3′,5′,6′-tetrahydro-spiro[naphthalene-1,4′-pyran]-3-yl)carbonyl)glycine] showed a negative logarithm of the IC50 (pIC50) greater than 7.00.
The compound `C[C@H](NC(=O)C1=C(O)c2cc(Cl)ccc2C(C)(C)C1=O)C(=O)O` [Example 66, N-((6-Chloro-4-hydroxy-1,1-dimethyl-2-oxo-naphthalen-3-yl)carbonyl)-L-alanine] gave a pIC50 of 6.30 to 7.00.
`O=C(O)CNC(=O)C1=C(O)c2cc(Cl)ccc2C2(CCCC2)C1=O` [Example 25, N-((6′-Chloro-4′-hydroxy-2′-oxo-spiro[cyclopentane-1,1′-naphthalen]-3′-yl)carbonyl)glycine]: the negative logarithm of the IC50 (pIC50) is 6.30 to 7.00.
In turn, `CC1(C)C(=O)C(C(=O)NCC(=O)O)=C(O)c2ccc(F)c(F)c21` [Example 24, N-((7,8-Difluoro-4-hydroxy-1,1-dimethyl-2-oxo-naphthalen-3-yl)carbonyl)glycine] had a negative-log IC50 (pIC50) greater than 7.00.
Regarding `C[C@H](NC(=O)C1=C(O)c2cc(Cl)ccc2C2(CCOCC2)C1=O)C(=O)O` [Example 55, N-((6-Chloro-4-hydroxy-2-oxo-2′,3′,5′,6′-tetrahydro-spiro[naphthalene-1,4′-pyran]-3-yl)carbonyl)-L-alanine], the pIC50 is 6.30 to 7.00.
Then `CC1(C)C(=O)C(C(=O)NCC(=O)O)=C(O)c2ccc(NCCN3CCOCC3)cc21` [Example 107, 2-(2-Hydroxy-1,1-dimethyl-7-(2-morpholinoethylamino)-4-oxo-1,4-dihydronaphthalene-3-carboxamido)acetic acid], with 6.30 to 7.00.
Then `Cc1cc(-c2ccc3c(c2)C(O)=C(C(=O)NCC(=O)O)C(=O)C3(C)C)ccn1` [Example 7, N-((4-Hydroxy-1,1-dimethyl-6-(2-methyl-4-pyridinyl)-2-oxo-naphthalen-3-yl)carbonyl)glycine], with 6.30 to 7.00.
For `C[C@@]1(C#N)C(=O)C(C(=O)NCC(=O)O)=C(O)c2cc(Cl)ccc21` [Example 85, N-(((1R)-6-Chloro-1-cyano-4-hydroxy-1-methyl-2-oxo-naphthalen-3-yl)carbonyl)glycine], the negative logarithm of the IC50 (pIC50) was greater than 7.00.
On to `CC1(C)C(=O)C(C(=O)NCC(=O)O)=C(O)c2ccc(O)c(F)c21` [Example 23, N-((8-Fluoro-4,7-dihydroxy-1,1-dimethyl-2-oxo-naphthalen-3-yl)carbonyl)glycine], for which the negative logarithm of the IC50 (pIC50) is greater than 7.00.
The compound `CC1(C#N)C(=O)C(C(=O)NCC(=O)O)=C(O)c2ccc(Cl)cc21` (single isomer, unassigned) [Example 141] had a pIC50 greater than 7.00.
`Cc1ncccc1-c1ccc2c(c1)C(O)=C(C(=O)NCC(=O)O)C(=O)C2(C)C` [Example 8, N-((4-Hydroxy-1,1-dimethyl-6-(2-methyl-3-pyridinyl)-2-oxo-naphthalen-3-yl)carbonyl)glycine]: the negative logarithm of the IC50 (pIC50) was 6.30 to 7.00.
Then `CC1(C)C(=O)C(C(=O)NCC(=O)O)=C(O)c2cc(F)c(Cl)cc21` [Example 96, N-((7-Chloro-6-fluoro-4-hydroxy-1,1-dimethyl-2-oxo-naphthalen-3-yl)carbonyl)glycine], with greater than 7.00; and `COC/C=C/c1ccc2c(c1)C(C)(C)C(=O)C(C(=O)NCC(=O)O)=C2O` [Example 98, N-((4-Hydroxy-1,1-dimethyl-7-((1E)-3-(methyloxy)-1-propen-1-yl)-2-oxo-naphthalen-3-yl)carbonyl)glycine], with greater than 7.00; and `CC1(C)C(=O)C(C(=O)NCC(=O)O)=C(O)c2ccc(C(=O)O)cc21` [Example 106, 6-((Carboxymethyl)carbamoyl)-7-hydroxy-8,8-dimethyl-5-oxo-5,8-dihydronaphthalene-2-carboxylic acid], with greater than 7.00.
As for `CC1(C#N)C(=O)C(C(=O)NCC(=O)O)=C(O)c2cc(Cl)ccc21` (stereo not drawn) [Example 84, N-((6-Chloro-1-cyano-4-hydroxy-1-methyl-2-oxo-naphthalen-3-yl)carbonyl)glycine], the figure is greater than 7.00; as for `CCC1(C)C(=O)C(C(=O)NCC(=O)O)=C(O)c2cc(Cl)ccc21` (single isomer, unassigned) [Example 78], 6.30 to 7.00; as for `C[C@@]1(C#N)C(=O)C(C(=O)CCC(=O)O)=C(O)c2cc(Cl)ccc21` (single isomer, unassigned) [Example 124, (R)-4-(7-chloro-4-cyano-1-hydroxy-4-methyl-3-oxo-3,4-dihydronaphthalen-2-yl)-4-oxobutanoic acid or (S)-4-(7-chloro-4-cyano-1-hydroxy-4-methyl-3-oxo-3,4-dihydronaphthalen-2-yl)-4-oxobutanoic acid], 5.00 to 6.00.
The compound `CC1(C)C(=O)C(C(=O)CCC(=O)O)=C(O)c2cc(Br)ccc21` [Example 104, 4-(7-Bromo-1-hydroxy-4,4-dimethyl-3-oxo-3,4-dihydronaphthalen-2-yl)-4-oxobutanoic acid] had a negative-log IC50 (pIC50) greater than 7.00.
As for `CC1(C)C(=O)C(C(=O)NCC(=O)O)=C(O)c2cc(Cl)cc(F)c21` [Example 57, N-((6-Chloro-8-fluoro-4-hydroxy-1,1-dimethyl-2-oxo-naphthalen-3-yl)carbonyl)glycine], the figure is greater than 7.00; as for `CC1(C#N)C(=O)C(C(=O)CCC(=O)O)=C(O)c2cc(Cl)ccc21` (stereo not drawn) [Example 123, 4-(7-chloro-4-cyano-3-hydroxy-4-methyl-1-oxo-1,4-dihydro-2-naphthalenyl)-4-oxobutanoic acid], 5.00 to 6.00; as for `CC1(C#N)C(=O)C(C(=O)NCC(=O)O)=C(O)c2ccc(Br)cc21` (stereo not drawn) [Example 132, 2-(7-bromo-1-cyano-4-hydroxy-1-methyl-2-oxo-1,2-dihydronaphthalene-3-carboxamido) acetic acid], greater than 7.00.
`O=C(O)CNC(=O)C1=C(O)c2cc(Cl)ccc2C2(CCCO2)C1=O` (stereo not drawn) [Example 72, N-((6′-Chloro-4′-hydroxy-2′-oxo-4,5-dihydro-spiro[furan-2,1′-naphthalen]-3′-yl)carbonyl)glycine] showed a pIC50 greater than 7.00.
In turn, `CC1(C)C(=O)C(C(=O)CCC(=O)O)=C(O)c2cc(Cl)c(Cl)cc21` [Example 118, 4-(6,7-Dichloro-3-hydroxy-4,4-dimethyl-1-oxo-1,4-dihydro-2-naphthalenyl)-4-oxobutanoic acid] showed a negative logarithm of the IC50 (pIC50) of 6.30 to 7.00.
Then `O=C(O)CNC(=O)C1=C(O)c2cc(F)ccc2C2(CCOCC2)C1=O` [Example 17, N-((6-Fluoro-4-hydroxy-2-oxo-2′,3′,5′,6′-tetrahydro-spiro[naphthalene-1,4′-pyran]-3-yl)carbonyl)glycine], with greater than 7.00; and `O=C(O)CNC(=O)C1=C(O)c2cc(Cl)c(Cl)cc2C2(CCOCC2)C1=O` [Example 62, N-((6,7-Dichloro-4-hydroxy-2-oxo-2′,3′,5′,6′-tetrahydro-spiro[naphthalene-1,4′-pyran]-3-yl)carbonyl)glycine], with greater than 7.00.
Compound `C[C@H](NC(=O)C1=C(O)c2ccc(Br)cc2C(C)(C)C1=O)C(=O)O` [Example 50, N-((7-Bromo-4-hydroxy-1,1-dimethyl-2-oxo-naphthalen-3-yl)carbonyl)-L-alanine] had a pIC50 of 6.30 to 7.00.
